Data set [1] concerns the target T1, prolyl-endopeptidase in rat cerebral cortex (Rattus norvegicus, UniProt O70196).
T1 sequence (O70196 1-710): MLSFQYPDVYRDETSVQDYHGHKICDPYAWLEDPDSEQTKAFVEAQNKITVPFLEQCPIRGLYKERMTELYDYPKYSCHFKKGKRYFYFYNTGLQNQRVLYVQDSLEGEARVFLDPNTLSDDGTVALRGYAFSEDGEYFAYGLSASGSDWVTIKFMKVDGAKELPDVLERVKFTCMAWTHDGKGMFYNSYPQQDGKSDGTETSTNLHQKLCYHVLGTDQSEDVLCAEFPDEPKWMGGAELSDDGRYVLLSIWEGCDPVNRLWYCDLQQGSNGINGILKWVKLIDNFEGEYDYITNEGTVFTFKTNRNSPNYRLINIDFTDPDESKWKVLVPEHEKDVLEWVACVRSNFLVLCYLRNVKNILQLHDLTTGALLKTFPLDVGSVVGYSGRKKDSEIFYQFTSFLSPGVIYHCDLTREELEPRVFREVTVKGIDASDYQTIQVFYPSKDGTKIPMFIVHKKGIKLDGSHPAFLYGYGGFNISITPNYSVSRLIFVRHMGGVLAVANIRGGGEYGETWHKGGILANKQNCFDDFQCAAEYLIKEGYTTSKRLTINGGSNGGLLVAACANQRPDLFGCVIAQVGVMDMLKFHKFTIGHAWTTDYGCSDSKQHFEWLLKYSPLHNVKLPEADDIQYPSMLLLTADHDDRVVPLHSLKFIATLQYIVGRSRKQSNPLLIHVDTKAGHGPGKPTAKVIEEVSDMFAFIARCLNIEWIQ
Description: In vivo inhibition of prolyl-endopeptidase in rat cerebral cortex after IP administration. The following applies: 1 mg/kg IP, 30 minutes before preparation of the tissue extract.

Data set [2] has as its target T1, prolyl-endopeptidase in rat cerebral cortex. The experiment in a line: Duration of action with respect to in vivo inhibition of prolyl-endopeptidase in rat cerebral cortex. The following applies: IP.
In data set [3] the target is Prolyl-endopeptidase. Description: biochemical.
Data set [4] addresses T1, prolyl-endopeptidase in rat cerebral cortex. The experiment in a line: Oral bioavailability estimated from inhibiting effect after oral versus IP administration. The class given is in vivo. The following applies: inhibiting effect (%) after oral divided by that after IP administration, 30 or 60 minutes.
Description: The oral bioavailability index (OBI) was determined by dividing the inhibiting effect (%) measured after oral administration by that measured after IP administration.
The target is the same in data set [5]. The experiment in a line: In vitro inhibition of prolyl-endopeptidase in rat cerebral cortex extract (substrate TRH-pNitroaniline). It is filed as biochemical. Particulars: 37° C.

Broadly, the inhibition is the drop in the measured response relative to a control, in per cent. As a reminder, the IC50 is the concentration at which inhibition is half-maximal. A low value points to inhibition by little substance.

Prolyl-endopeptidase, sequence (P27028 21-705): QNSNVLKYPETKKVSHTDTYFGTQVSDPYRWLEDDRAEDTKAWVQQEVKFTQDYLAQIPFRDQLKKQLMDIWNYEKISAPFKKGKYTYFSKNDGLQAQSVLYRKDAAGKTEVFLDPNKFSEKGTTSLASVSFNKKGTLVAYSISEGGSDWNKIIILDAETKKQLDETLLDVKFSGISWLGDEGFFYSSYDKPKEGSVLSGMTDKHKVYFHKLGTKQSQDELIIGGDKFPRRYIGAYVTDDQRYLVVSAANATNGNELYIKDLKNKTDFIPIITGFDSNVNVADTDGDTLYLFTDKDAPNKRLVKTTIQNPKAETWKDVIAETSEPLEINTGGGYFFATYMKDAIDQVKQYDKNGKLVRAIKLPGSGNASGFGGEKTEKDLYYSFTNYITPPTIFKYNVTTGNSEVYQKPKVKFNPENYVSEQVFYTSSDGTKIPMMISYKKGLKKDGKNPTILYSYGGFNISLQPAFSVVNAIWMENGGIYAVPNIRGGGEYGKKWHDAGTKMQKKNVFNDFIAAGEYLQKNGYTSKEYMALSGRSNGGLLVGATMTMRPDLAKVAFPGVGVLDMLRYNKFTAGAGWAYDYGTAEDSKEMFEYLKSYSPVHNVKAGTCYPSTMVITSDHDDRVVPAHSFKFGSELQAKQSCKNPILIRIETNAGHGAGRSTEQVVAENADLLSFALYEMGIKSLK

As for `O=C([C@@H]1C[C@@H]2CCCC[C@@H]2N1C(=O)C1CC1Cc1ccccc1)N1CCCC1` (single isomer, unassigned) [Example 14], the inhibition at 1 mg/kg in data set [1] was found to be 41%.
In the case of `O=C([C@@H]1C[C@@H]2CCCC[C@@H]2N1C(=O)[C@@H]1C[C@H]1c1ccc(F)cc1)N1CCCC1` [Example 1], the “t1/2 (time for which the inhibiting effect is equal to 50 % of the maximum effect measured at 30 minutes)” value in data set [2] (1 mg/kg) was determined as 7 h. For the same molecule, the half-maximal inhibitory concentration (IC50) in data set [3] amounted to 14 nM. For the same molecule, the inhibition at 1 mg/kg in data set [1] came out at 54%. The “OBI (oral bioavailability index)” value in data set [4] (1 mg/kg) is recorded as 0.90.
With `O=C([C@@H]1C2CCC(CC2)N1C(=O)[C@@H]1C[C@H]1c1ccc(F)cc1)N1CCCC1` [Example 2, (3S)-2-{(1R,2R)-[2-(4-Fluorophenyl)-1-cyclopropyl]carbonyl}-3-[(pyrrolidin-1-yl)carbonyl]-2-azabicyclo[2.2.2]octane], in data set [2] (1 mg/kg), the “t1/2 (time for which the inhibiting effect is equal to 50 % of the maximum effect measured at 30 minutes)” value came out at 7 h. In data set [3], this molecule gave an IC50 of 40 nM. Besides, 1 mg/kg produced 42% inhibition in data set [1].
Consider `O=C([C@@H]1C[C@@H]2CCCC[C@@H]2N1C(=O)[C@@H]1C[C@H]1c1cccs1)N1CCCC1` [Example 3, (2S,3aS,7aS)-1-{(1R,2R)-[2-(2-Thienyl)-1-cyclopropyl]carbonyl}-2-[(pyrrolidin-1-yl)carbonyl]perhydroindole], for which the IC50 in data set [5] is 1.4 nM; in data set [3], 14 nM. In data set [1], at 1 mg/kg the inhibition was 59%.
As for `O=C([C@@H]1C[C@@H]2CCCC[C@@H]2N1C(=O)[C@@H]1C[C@H]1c1cccc(C(F)(F)F)c1)N1CCCC1` [Example 5, (2S,3aS,7aS)-1-{(1R,2R)-[2-(3-Trifluoromethylphenyl)-1cyclopropyl]carbonyl}-2-[(pyrrolidin-1-yl)carbonyl]perhydroindole], half-maximal inhibition in data set [5] (IC50) was put at 1 nM. The same molecule gave an inhibition at 1 mg/kg in data set [1] of 58%.
`O=C([C@@H]1C2CCC(CC2)N1C(=O)[C@@H]1C[C@H]1c1cccc(C(F)(F)F)c1)N1CCCC1` [Example 6, (3S)-2-{(1R,2R)-[2-(3-Trifluoromethylphenyl)-1-cyclopropyl]carbonyl}-3-[(pyrrolidin-1-yl)carbonyl]-2-azabicyclo[2.2.2]octane] gave a half-maximal inhibitory concentration (IC50) in data set [3] of 3 nM. The molecule further yielded an inhibition at 1 mg/kg in data set [1] of 49%.
On to `O=C[C@@H]1CCCN1C(=O)CCC(=O)NCc1ccc(Cl)cc1` [ONO, (S)-1-[N-4-chlorobenzylsuccinamoyl] pyrrolidine-2-carbaldehyde, reference compound], for which the “t1/2 (time for which the inhibiting effect is equal to 50 % of the maximum effect measured at 30 minutes)” value in data set [2] (30 mg/kg) stood at 1 h.
Take `O=C([C@@H]1CSCN1C(=O)CCCc1ccccc1)N1CCCC1` [Zeria, N-(4-phenylbutanoyl)-L-thiaprolylpyrrolidineimide, reference compound]: the “t1/2 (time for which the inhibiting effect is equal to 50 % of the maximum effect measured at 30 minutes)” value in data set [2] (30 mg/kg) came to 1 h. The “OBI (oral bioavailability index)” value in data set [4] (30 mg/kg) was 0.30.

These data come from US5506237A, “Bicyclic nitrogen compounds” (Adir et Compagnie, priority 1993, dated 1996).
